Results on 21 compounds are retold here after patent US20260217698A1 (BEYANG THERAPEUTICS CO., LTD., priority 2022, published 2026).

One may read the IC50 as the concentration that gives 50% inhibition.

Where only a bound is given, the exact number is not on record here.

In assay [1] the target is T1, EGFR (Homo sapiens, UniProt P00533).
T1 construct: purchased Carna 08-115
As to the kind of experiment: Kinase inhibition, Mobility Shift Assay/IMAP, EGFR. It counts as biochemical. The text has this: (§1) This assay directly monitored the ability of compounds to inhibit kinase phosphorylation by measuring non-phosphorylated and phosphorylated substrates in kinase reactions by using Mobility Shift Assays/IMAP™ analysis.
(§2) Read the conversion ratio data on CaliperEZ Reader II. Convert conversion rates into inhibition ratio data.
(§3) “Min” indicates the readout of the control well without the addition of enzymes; and “Max” indicates the readout of the control well with the addition of DMSO Fit IC50 values with XL Fit excel add-in version […].
(§4) X indicates the log value of compound concentration, and Y indicates the inhibition ratio (% inhibition).

Assay [2] has as its target VEGFR2 (Homo sapiens, UniProt P35968). As to the kind of experiment: Kinase inhibition, Mobility Shift Assay/IMAP, VEGFR2. It counts as biochemical. More on the design: purchased Carna 08-191.
Source text: as §1, §2, §3, §4

T1 sequence (P00533 669-1210 limits assumed): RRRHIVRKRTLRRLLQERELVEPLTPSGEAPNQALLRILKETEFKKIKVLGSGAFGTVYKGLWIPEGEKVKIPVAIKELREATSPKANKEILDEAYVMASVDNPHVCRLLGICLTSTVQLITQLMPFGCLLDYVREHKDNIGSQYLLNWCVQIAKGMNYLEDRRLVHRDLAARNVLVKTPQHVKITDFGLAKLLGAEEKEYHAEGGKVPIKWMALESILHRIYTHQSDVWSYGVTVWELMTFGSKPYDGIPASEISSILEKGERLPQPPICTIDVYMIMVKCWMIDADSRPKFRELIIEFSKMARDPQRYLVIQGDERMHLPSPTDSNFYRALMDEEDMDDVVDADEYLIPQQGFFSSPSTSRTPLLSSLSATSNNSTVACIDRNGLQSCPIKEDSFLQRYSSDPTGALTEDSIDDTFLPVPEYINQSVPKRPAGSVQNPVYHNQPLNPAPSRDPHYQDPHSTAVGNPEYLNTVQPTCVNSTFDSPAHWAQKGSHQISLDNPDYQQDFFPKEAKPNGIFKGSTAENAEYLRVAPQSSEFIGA
VEGFR2, sequence (P35968 790-1356 limits assumed): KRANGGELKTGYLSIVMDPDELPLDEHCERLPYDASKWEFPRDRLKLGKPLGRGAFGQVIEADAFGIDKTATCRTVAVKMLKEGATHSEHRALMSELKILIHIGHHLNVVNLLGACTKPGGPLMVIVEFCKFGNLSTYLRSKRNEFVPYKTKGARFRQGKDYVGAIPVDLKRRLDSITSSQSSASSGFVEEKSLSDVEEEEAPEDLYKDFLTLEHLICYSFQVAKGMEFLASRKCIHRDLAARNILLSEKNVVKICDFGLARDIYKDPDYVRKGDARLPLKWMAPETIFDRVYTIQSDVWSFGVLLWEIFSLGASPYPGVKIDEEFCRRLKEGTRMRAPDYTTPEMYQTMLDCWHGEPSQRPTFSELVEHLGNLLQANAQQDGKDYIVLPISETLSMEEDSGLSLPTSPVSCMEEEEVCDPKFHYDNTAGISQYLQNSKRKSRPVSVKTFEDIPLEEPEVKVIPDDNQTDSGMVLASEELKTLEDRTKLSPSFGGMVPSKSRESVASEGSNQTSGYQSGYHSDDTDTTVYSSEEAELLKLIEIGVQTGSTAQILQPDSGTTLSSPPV

As for `CC(C)NC(=O)c1cccc(COc2nsc(NC(=O)NCCCCN3CCCC3)c2C(N)=O)c1` [Compound T057, 3-((3-(isopropylcarbamoyl)benzyl)oxy)-5-(3-(4-(pyrrolidin-1-yl)butyl)ureido)isothiazole-4-carboxamide], the IC50 in assay [1] is > 60 µM; in assay [2] it was 152 nM. With `NC(=O)c1c(OCc2cccc(OC3CC3)c2)nsc1NC(=O)NCCCCN1CCCC1` [Compound T003, 3-((3-cyclopropoxybenzyl)oxy)-5-(3-(4-(pyrrolidin-1-yl)butyl)ureido)isothiazole-4-carboxamide], in assay [2], the concentration for half-maximal inhibition (IC50) amounted to 112 nM.

Regarding `NCCCNC(=O)Nc1snc(OCc2cc(C(=O)NC3CC3)ccc2F)c1C(N)=O` [Compound T167, 5-(3-aminopropylcarbamoylamino)-3-[[5-(cyclopropylcarbamoyl)-2-fluoro-phenyl]methoxy]isothiazole-4-carboxamide], the IC50 in assay [2] was 0.95 nM. On to `COc1cc(F)c(F)c(COc2nsc(NC(=O)NCCCCN3CCCC3)c2C(N)=O)c1F` [Compound T142, 5-(4-pyrrolidin-1-ylbutylcarbamoylamino)-3-[(2,3,6-trifluoro-5-methoxy-phenyl)methoxy]isothiazole-4-carboxamide], for which the IC50 amounted to 31 µM in assay [1] and 6.6 nM in assay [2]. As to `Cn1nc(COc2nsc(NC(=O)NCCCCN3CCCC3)c2C(N)=O)c2ccccc21` [Compound T002, 3-((1-methyl-1H-indazol-3-yl)methoxy)-5-(3-(4-(pyrrolidin-1-yl)butyl)ureido)isothiazole-4-carboxamide], in assay [2], the IC50 is 130 nM.

As for `Cc1cc(COc2nsc(NC(=O)NCCCCN3CCCC3)c2C(N)=O)nn1C` [Compound T009, 3-((1,5-dimethyl-1H-pyrazol-3-yl)methoxy)-5-(3-(4-(pyrrolidin-1-yl)butyl)ureido)isothiazole-4-carboxamide], the IC50 in assay [2] turned out to be 217 nM. The same measure, in the same setting: the value for `CC(=O)N1CCN(CCCNC(=O)Nc2snc(OCc3cc(C(=O)NC4CC4)ccc3F)c2C(N)=O)CC1` [Compound T156, 5-[3-(4-acetylpiperazin-1-yl)propylcarbamoylamino]-3-[[5-(cyclopropylcarbamoyl)-2-fluoro-phenyl]methoxy]isothiazole-4-carboxamide] was 1.44 nM; that for `NC(=O)c1c(OCc2cc(C(=O)NC3CC3)ccc2F)nsc1NC(=O)NCCCN1CCNCC1` [Compound T153, 3-[[5-(cyclopropylcarbamyl)-2-fluoro-phenyl]methoxy]-5-(3-piperazin-1-ylpropylcarbamylamino)isothiazol-4-formamide] was 0.66 nM. For `CC(C)(C)OC(=O)CCNC(=O)Nc1snc(OCc2cc(C(=O)NC3CC3)ccc2F)c1C(N)=O` [Compound T173, Tert-butyl 3-[[4-carbamoyl-3-[[5-(cyclopropylcarbamoyl)-2-fluoro-phenyl]methoxy]isothiazol-5-yl]carbamoylamino]propanoate], the IC50 in assay [1] was determined as 5.91 µM; in assay [2], 1.97 nM. Turning to `NC(=O)c1c(OCc2cc(C(=O)NC3CC3)ccc2F)nsc1NC(=O)NCCCO` [Compound T170, 3-[[5-(cyclopropylcarbamoyl)-2-fluoro-phenyl]methoxy]-5-(3-hydroxypropylcarbamoylamino)isothiazole-4-carboxamide], in assay [2], the IC50 stood at 1.12 nM. In the case of `NC(=O)c1c(OCc2ccc(F)c(C(=O)NC3CC3)c2)nsc1NC(=O)NCCCCN1CC[C@@H](O)C1` [Compound T150, 3-[[3-(cyclopropylcarbamoyl)-4-fluoro-phenyl]methoxy]-5-[4-[(3R)-3-hydroxypyrrolidin-1-yl]butylcarbamoylamino]isothiazole-4-carboxamide], the results for the IC50 in assay [1] and in assay [2] were 7.42 µM and 1.2 nM, respectively. In the case of `Cn1ncc2c(COc3nsc(NC(=O)NCCCCN4CCCC4)c3C(N)=O)cccc21` [Compound T004, 3-((1-methyl-1H-indazol-4-yl)methoxy)-5-(3-(4-(pyrrolidin-1-yl)butyl)ureido)isothiazole-4-carboxamide], the IC50 in assay [2] was found to be 163 nM. On to `CC(=O)N1CCN(CCCNC(=O)Nc2snc(OCc3ccc(F)c(C(=O)NC4CC4)c3)c2C(N)=O)CC1` [Compound T157, 5-[3-(4-acetylpiperazin-1-yl)propylcarbamoylamino]-3-[[3-(cyclopropylcarbamoyl)-4-fluoro-phenyl]methoxy]isothiazole-4-carboxamide], for which the IC50 in assay [1] stood at 15.2 µM; in assay [2] it was 2.5 nM.

For the compound `CCN1CCN(CCCNC(=O)Nc2snc(OCc3ccc(F)c(C(=O)NC4CC4)c3)c2C(N)=O)CC1` [Compound T164, 3-[[3-(cyclopropylcarbamoyl)-4-fluoro-phenyl]methoxy]-5-[3-(4-ethylpiperazin-1-yl)propylcarbamoylamino]isothiazole-4-carboxamide], the IC50 in assay [1] amounted to 12.2 µM; in assay [2] it was 1.25 nM. The matching figures for `CCN1CCN(CCCNC(=O)Nc2snc(OCc3cc(C(=O)NC4CC4)ccc3F)c2C(N)=O)CC1` [Compound T163, 3-[[5-(cyclopropylcarbamoyl)-2-fluoro-phenyl]methoxy]-5-[3-(4-ethylpiperazin-1-yl)propylcarbamoylamino]isothiazole-4-carboxamide]: 11.2 µM and 0.32 nM. The matching figures for `NC(=O)c1c(OCc2ccc(F)c(C(=O)NC3CC3)c2)nsc1NC(=O)NCCCN1CCN(C2CC2)CC1` [Compound T165, 3-[[3-(cyclopropylcarbamoyl)-4-fluoro-phenyl]methoxy]-5-[3-(4-cyclopropylpiperazin-1-yl)propylcarbamoylamino]isothiazole-4-carboxamide]: 31.6 µM and 1.46 nM. As for `NC(=O)c1ccc(F)c(COc2nsc(NC(=O)NCCCN3CC[C@H](F)C3)c2C(N)=O)c1` [Compound T168, 3-[(5-carbamoyl-2-fluoro-phenyl)methoxy]-5-[3-[(3S)-3-fluoropyrrolidin-1-yl]propylcarbamoylamino]isothiazole-4-carboxamide], in assay [2], the IC50 came out at 8.45 nM. Consider `CC(C)(C)OC(=O)N1CCN(CCn2cc(Nc3snc(OCc4c(F)cc(Br)cc4F)c3C(N)=O)cn2)CC1` [Compound T046], for which the IC50 in assay [2] came to 62 nM. As to `NC(=O)c1c(OCc2c(F)ccc(OC(F)F)c2F)nsc1NC(=O)NCCCCN1CCCC1` [Compound T148, 3-[[3-(difluoromethoxy)-2,6-difluoro-phenyl]methoxy]-5-(4-pyrrolidin-1-ylbutylcarbamoylamino)isothiazole-4-carboxamide], the IC50 in assay [1] came out at 4.01 µM; in assay [2] it was 16 nM. As to `COc1cccc(COc2nsc(NC(=O)NCCCCN3CCCC3)c2C(N)=O)c1OC` [Compound T032, 3-((2,3-dimethoxybenzyl)oxy)-5-(3-(4-(pyrrolidin-1-yl)butyl)ureido)isothiazole-4-carboxamide], the IC50 in assay [1] is 39.6 µM; in assay [2], 56.8 nM. The matching figures for `NC(=O)c1c(OCc2cc(C(=O)NC3CC3)ccc2F)nsc1N` [Compound T159, 5-amino-3-[[5-(cyclopropylcarbamoyl)-2-fluoro-phenyl]methoxy]isothiazole-4-carboxamide]: 8.77 µM and 41.7 nM.
